We go through 5 molecules from patent US20230210903A1, “HYPOXIA-RESISTANT NATURAL KILLER CELLS” (ONK THERAPEUTICS LIMITED, priority 2020, published 2023).

Where only a bound is given, the exact number is not on record here.

The Kd is the concentration at which binding is half-saturated.

The test system of data set [1] is KHYG-1 cells. Nature of the data set: Flow cytometry of activating receptors on NK cell surface, KHYG-1. Conditions: 10 μM inhibitor for 24 h. Format: cell-based. How it is done:
(§1) Hypoxia diminishes the phosphorylation level of ERK and STAT3.
(§2) The expression of NK cell cytotoxicity effector molecules and activating receptors was analyzed by flow cytometry. For membrane staining, 5×10^5 cells were collected and washed with staining buffer (PBS containing 0.1% NaN3 and 0.1% BSA) three times. The cells were then incubated for 30 min on ice, according to the instructions provided with the respective antibodies. After washing 3 times with cell stain buffer, the cells were resuspended in 300 μL staining buffer in the presence of Sytox Green or 7-AAD, which were used to gate out dead cells. Acquisition of 10,000 cells per reaction was performed using a CytoFLEX Cytometer (Beckman Coulter Life Sciences). Data were analyzed with Flowjo v7.6.2 (Tree Star). For intracellular staining, 5×10^5 cells were collected and fixed with 1 mL 1% paraformaldehyde in PBS for 15 minutes at room temperature. After washing 3 times with cell stain buffer, the fixed cells were then resuspended in 2 mL permeabilization buffer (0.1% saponin in cell staining buffer) and incubated for 30 min at room temperature. The cells were collected again by centrifugation, stained with the antibody at an optimal working concentration in permeabilization buffer for 15 min on ice. […]

For data set [2], the system named is NK-92 cells. Description: Flow cytometry of activating receptors on NK cell surface, NK-92. Conditions: 10 μM inhibitor for 24 h. Format: cell-based. As for the experimental part:
as §1, §2
For orientation: A flow cytometer gives signals particle by particle.

Data set [3] concerns K562 cells. The following applies: KHYG-1 pretreated with 10 μM for 6 h, then K562 at different E:T ratios for 4 h.
Protocol: Statistical analysis showing the effects of ERK and STAT3 inhibition on NK cells cytotoxicity against K562 cells (n=3, * P<0.05, ** P<0.01). KHYG-1 cells were pretreated with 10 μM U0126 and 10 μM CPT for 6 h and then incubated with K562 at different E:T ratios for 4 h.
(e) Flow cytometric analysis of the effects of TPI-1 on the NK cell cytotoxicity. Left panel: representative flow cytometry results of TPI-1 on the cytotoxicity of KHYG-1 cells. KHYG-1 cells were pretreated with 5 μM TPI-1 for 2 h, and then incubated with K562 cells at different E:T ratios for 4 h. Right panel: statistical analysis of the effects of TPI-1 on KHYG-1 cell cytotoxicity against K562 cells (n=3, * P<0.05).
(b) Statistical analysis of the effects of knocking down SHP-1 on NK cells cytotoxicity against K562 cells (n=3, * P<0.05). […]
Prior to the assay, NK cells and tumour cells were individually pre-incubated for 24 h at 5% CO2 with 20% or 1% 02 first. […] After the 4 h incubation, samples were harvested and washed followed by a combinational staining with CD2-APC, Annexin V-FITC as well as Sytox Green, in which CD2 was used to distinguish effector from target cells, and target cell death was detected with Annexin V-FITC and Sytox Green. A minimum of 10,000 target events were collected per sample, and the results were analyzed using Flowjo v7.6.2.
Data set [4] deals with phosphorylation of ERK and STAT3. Description: Western blotting of ERK and STAT3 phosphorylation in hypoxic KHYG-1 cells. Format: cell-based. Conditions: hypoxic KHYG-1 cells pre-treated with 5 μM for 2 h.
Protocol: Hypoxic KYHG-1 cells were pre-treated with 5 μM TPI-1 for 2 h, and then the cells were collected for western blotting analysis.
For western blotting, treated and untreated KHYG-1 and NK92 cells were lysed in buffer containing 50 mM Tris, 150 mM NaCl, 1% Triton X-100, 1% sodium deoxycholate, 0.1% SDS and protease inhibitors on ice for 30 min. Lysates were centrifuged at 12,000 rpm for 15 min, and supernatants were collected. Protein concentration was determined by the BCA protein assay kit (HEART Biotech, #WB003). Equal amounts of protein were loaded and separated on sodium dodecyl sulfate-polyacrylamide gel electrophoresis gel, and transferred onto a PVDF membrane (Millipore, #IPVH00010). After blocking for 1 h with 5% non-fat milk in PBS with 0.1% Tween-20 at room temperature, the membrane was incubated with primary antibody at 4° C. overnight. Immunoblots were visualized using HRP-conjugated secondary antibodies and the ECL Western Blot Detection kit (Phygene Life Sciences, #PH0353).
The target in data set [5] is DR4 (Homo sapiens, UniProt O00220). Conditions: surface plasmon resonance; WO 2009/077857; cited from earlier work.
In data set [6] the target is T1, decoy receptor DcR1 (Homo sapiens, UniProt O14798).
T1 sequence (O14798 26-236): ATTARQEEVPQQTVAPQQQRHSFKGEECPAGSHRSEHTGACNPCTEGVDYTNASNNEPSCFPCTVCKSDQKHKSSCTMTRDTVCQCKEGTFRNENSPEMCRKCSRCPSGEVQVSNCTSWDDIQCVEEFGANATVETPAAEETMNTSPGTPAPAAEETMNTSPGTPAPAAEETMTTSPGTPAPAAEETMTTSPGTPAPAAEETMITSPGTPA
The following applies: surface plasmon resonance; WO 2009/077857; cited from earlier work. A general note: Surface plasmon resonance follows binding to a sensor surface in real time, without labels.

Data set [7] addresses T2, DcR2 (Homo sapiens, UniProt Q9UBN6).
T2 sequence (Q9UBN6 56-386): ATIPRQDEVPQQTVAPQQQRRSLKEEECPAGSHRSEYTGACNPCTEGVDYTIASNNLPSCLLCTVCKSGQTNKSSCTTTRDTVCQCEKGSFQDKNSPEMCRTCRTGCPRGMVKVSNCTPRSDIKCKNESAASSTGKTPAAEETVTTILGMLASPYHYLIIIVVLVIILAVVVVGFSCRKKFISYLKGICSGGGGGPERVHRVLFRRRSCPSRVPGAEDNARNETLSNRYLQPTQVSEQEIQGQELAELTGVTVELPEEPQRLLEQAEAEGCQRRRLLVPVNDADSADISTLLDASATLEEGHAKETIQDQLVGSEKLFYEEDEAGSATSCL
Conditions: compared with wildtype TRAIL; cited from earlier work.

The target of data set [8] is T3, DcR1 (Homo sapiens, UniProt O14798).
T3 sequence (O14798 26-236): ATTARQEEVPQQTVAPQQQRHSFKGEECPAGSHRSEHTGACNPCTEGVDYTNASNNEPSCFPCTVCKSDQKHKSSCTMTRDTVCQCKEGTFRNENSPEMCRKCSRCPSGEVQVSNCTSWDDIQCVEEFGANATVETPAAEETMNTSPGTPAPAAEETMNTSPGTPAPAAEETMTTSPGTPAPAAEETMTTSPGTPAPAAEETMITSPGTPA
The following applies: compared with wildtype TRAIL; cited from earlier work.

Data set [9] has as its target DR5 (Homo sapiens, UniProt O14763). The following applies: compared with wildtype TRAIL; cited from earlier work.

In the case of `N#CC(=C(/N)Sc1ccccc1N)/C(C#N)=C(\N)Sc1ccccc1N` [U0126], the “expression of activating receptors NKp30, NKp46 and NKG2D” value in data set [1] is reported as “significantly reduced”. Also, the “expression of activating receptors NKp46 and NKG2D” value in data set [2] is given as “significantly reduced”. Also, the “NK cell cytotoxicity against cancer cells” value in [3] is recorded as “significantly impaired”.

For `O=C1C=CC(=O)C(c2cc(Cl)ccc2Cl)=C1` [TPI-1], the “phosphorylation of ERK and STAT3” value in data set [4] is given as “reverse the decrease”.

Regarding `C[C@H]1COC2=C1C(=O)C(=O)c1c2ccc2c1CCCC2(C)C` [cryptotanshinone], the “NK cell cytotoxicity against cancer cells” value in data set [3] is given as “significantly impaired”.

In the case of Wildtype TRAIL: wildtype TRAIL ligand, the Kd in [5] is over 0.002 µM; in data set [6], over 0.02 µM.

B1: TRAIL variant: encoded by the wildtype TRAIL gene containing the D269H/E195R mutation, described in WO 2009/077857 (protein)
chain: MAMMEVQGGPSLGQTCVLIVIFTVLLQSLCVAVTYVYFTNELKQMQDKYSKSGIACFLKEDDSYWDPNDEESMNSPCWQVKWQLRQLVRKMILRTSEETISTVQEKQQNISPLVRERGPQRVAAHITGTRGRSNTLSSPNSKNEKALGRKINSWESSRSGHSFLSNLHLRNGELVIHEKGFYYIYSQTYFRFQERIKENTKNDKQMVQYIYKYTSYPDPILLMKSARNSCWSKDAEYGLYSIYQGGIFELKENDRIFVSVTNEHLIDMHHEASFFGAFLVG
Consider B1, for which the “affinity for decoy receptor DcR2” value in data set [7] is recorded as “reducing”. The “affinity for decoy receptor DcR1” value in data set [8] is recorded as “reducing”. Besides, in data set [9], the “affinity for DR5” value was “significantly increases”.
